Measurements from patent publication US20240343699A1, “DERIVATIVES OF SUBSTITUTED MORPHOLINES AND USES THEREOF” (Supernus Pharmaceuticals, Inc., priority 2023, published 2024).

Legend:
anxiety-like behavior = assay: Elevated plus maze (EPM); format: in vivo, male Wistar rats; details: for Closed arm entries / Closed arm returns / Head dips in open arms / Stretch-attend postures / Time in closed arms / Time in open arms / Total arm entries: mean; for % Time in open arms / Open Arm Entries / Total distance travelled: mean ± S.E.M.
[1] = Stability in human gut microbiota (fecal matter); format: in vitro ADME; details: pH 6 and 7.4, all time points
Experimental: Stability in Rat and Human Gut Microbiota. Rat fecal material was obtained and weighed. One capsule of the raw probiotics was crushed and weighed prior to use. The weighed samples were then solubilized in PBS at pH 6.0 and 7.4 to extract microorganisms. The samples were centrifuged at 18,000×g for 10 min to remove particulates and the supernatant was used to evaluate test article stability. An aliquot (50 μL) of the COMPOUND A stock solution was added to the fecal extract (final concentration 0.5 mM) and allowed to incubate at 37° C. Aliquots were collected at 0, 15, 30, 60, and 120 min and analyzed by LC/MS/MS to determine stability of the parent molecule. The collected sample was quenched in acetonitrile/0.1% formic acid mixture.

[2] = Stability in fluid matrices SGF, SIF and PBS; format: physicochemical; details: 37° C.
Experimental: Simulated Gastric Fluid (SGF) was prepared with 34.2 mM NaCl, 80 μM sodium taurocholate, 20 μM of L-alpha phosphatidylcholine/lecithin, and 0.1 mg/mL of Pepsin. 1 M HCl was added dropwise to adjust the pH to 1.96. Simulated Intestinal Fluid (SIF) was prepared with sodium phosphate monobasic, 105.9 mM NaCl, […] sodium taurocholate, and […] of L-alpha phosphatidylcholine/lecithin. 1 N NaOH was added dropwise to adjust the pH to 5.98. Phosphate buffered saline (PBS) at pH 6.0 was made by titrating PBS at pH 7.4 with 1 M HCl.
Stability of Test Articles at Different pH Values. 10 mM stock solutions of COMPOUND A were prepared in DMSO. From this stock solution, a single concentration in a 10 μL aliquot was added to three fluid matrices: SGF at pH 2.0 (gastric), SIF at pH 6.0 (upper intestine), and PBS at 7.4 (systemic). The final volume was 1 mL (0.1 mM). The preparations were then incubated at 37° C. and samples were collected at 0, 15, 30, 60, and 120 min for analysis of parent material by LC/MS/MS. The collected sample was quenched in acetonitrile/0.1% formic acid mixture. Red Blood Cell (RBC): Human and rat blood were centrifuged to separate out red blood cells at […] for 15 min. The upper plasma level was aspirated with a micropipette and placed in a bleach solution for disposal. The RBC pellet was resuspended in sterile isotonic saline. The pellet was gently resuspended by rocking the tube. The sample was then centrifuged again to collect the RBC pellet and then resuspended and washed one more time following the same procedure. A total of three was done. Following the last wash and centrifugation, the RBCs were resuspended with PBS; and mixed by inversion. Aliquots of the resuspended and washed RBCs were then placed into 4 reaction tubes. These tubes were centrifuged to collect the RBCs. The fluid level was marked on each tube, then the supernatant was aspirated off and the cells resuspended with room temperature PBS pH 7.4 to the original mark. An aliquot of the RBC suspension was added to four sterile tubes containing PBS pH 7.4 at room temperature.

recognition memory = assay: Spontaneous novel object recognition (NOR), 48 hr retention interval; format: in vivo, male Wistar rats; details: 48 hr delay
[3] = Stability in rat whole blood, red blood cells and plasma; format: in vitro ADME; details: 0.5 mM, 0-120 min
Experimental: Stability of Test Articles at Different pH Values. 10 mM stock solutions of COMPOUND A were prepared in DMSO. From this stock solution, a single concentration in a 10 μL aliquot was added to three fluid matrices: SGF at pH 2.0 (gastric), SIF at pH 6.0 (upper intestine), and PBS at 7.4 (systemic). The final volume was 1 mL (0.1 mM). The preparations were then incubated at 37° C. and samples were collected at 0, 15, 30, 60, and 120 min for analysis of parent material by LC/MS/MS. The collected sample was quenched in acetonitrile/0.1% formic acid mixture. Red Blood Cell (RBC): Human and rat blood were centrifuged to separate out red blood cells at […] for 15 min. The upper plasma level was aspirated with a micropipette and placed in a bleach solution for disposal. The RBC pellet was resuspended in sterile isotonic saline. The pellet was gently resuspended by rocking the tube. […]
Stability in Human and Rat Red Blood cells and Hemolysis. […] After centrifugation, 70 μL of supernatant (without disturbing the pellet) was transferred to a clean and clear polystyrene flat bottomed 96-well plate and the absorbance of the sample at a single wavelength was measured using a Bio Tech Synergy Hl Plate Reader at a wavelength of 410 nm. […] Stability was measured by measuring loss of parent compound using LC/MS/MS.

[4] = 30 mg/kg PO 20 min prior to EPM
[5] = 60 mg/kg PO 20 min prior to EPM
[6] = 120 mg/kg PO 40 min prior to EPM

Question: What does the source list for CCOc1ccccc1OC[C@@H]1CN(C(=O)OC(C)OC(=O)[C@@H](N)C(C)C)CCO1 (stereo partly drawn) [COMPOUND A]?
Answer: Closed arm entries (anxiety-like behavior; [4]): 10.00; Closed arm returns (anxiety-like behavior; [4]): 2.00; Head dips in open arms (anxiety-like behavior; [4]): 2.25; Stretch-attend postures (anxiety-like behavior; [4]): 18.00; Time in closed arms (anxiety-like behavior; [4]): 282.58 s; Time in open arms (anxiety-like behavior; [4]): 8.74 s; Total arm entries (anxiety-like behavior; [4]): 11.00; % Time in open arms (anxiety-like behavior; [4]): 2.91 ± 1.28%; Open Arm Entries (anxiety-like behavior; [4]): 1.00 ± 0.33; Total distance travelled (anxiety-like behavior; [4]): 1591.15 ± 73.52 cm; Closed arm entries (anxiety-like behavior; [5]): 7.00; Closed arm returns (anxiety-like behavior; [5]): 2.13; Head dips in open arms (anxiety-like behavior; [5]): 3.63; Stretch-attend postures (anxiety-like behavior; [5]): 18.63; Time in closed arms (anxiety-like behavior; [5]): 281.10 s; Time in open arms (anxiety-like behavior; [5]): 7.25 s; Total arm entries (anxiety-like behavior; [5]): 7.63; % Time in open arms (anxiety-like behavior; [5]): 2.42 ± 0.92%; Open Arm Entries (anxiety-like behavior; [5]): 0.63 ± 0.18; Total distance travelled (anxiety-like behavior; [5]): 1318.06 ± 39.58 cm; Closed arm entries (anxiety-like behavior; [6]): 9.63; Closed arm returns (anxiety-like behavior; [6]): 2.00; Head dips in open arms (anxiety-like behavior; [6]): 2.25; Stretch-attend postures (anxiety-like behavior; [6]): 20.38; Time in closed arms (anxiety-like behavior; [6]): 283.06 s; Time in open arms (anxiety-like behavior; [6]): 0.85 s; Total arm entries (anxiety-like behavior; [6]): 9.88; % Time in open arms (anxiety-like behavior; [6]): 0.28 ± 0.19%; Open Arm Entries (anxiety-like behavior; [6]): 0.25 ± 0.16; Total distance travelled (anxiety-like behavior; [6]): 1476.54 ± 60.73 cm; total distance traveled vs vehicle (anxiety-like behavior; COMPOUND A 60 and 120 mg/kg p.o.): travelled a significantly shorter distance; amount of parent compound in human fecal matter [1]: ~100%; stability in PBS (amount of parent compound) ([2]; PBS pH 7.4, 0.1 mM): time-dependent decrease in the amount of parent compound; stability in SGF (LC/MS/MS peak area of parent) ([2]; SGF pH 2.0, 0.1 mM, 0-120 min): time-dependent decrease in the LC/MS/MS peak area until 20 min; amount of parent compound in SIF ([2]; SIF pH 6.0, 0.1 mM, all time points): 100%; preference for the novel object (exploration times) (recognition memory; COMPOUND A 15 mg/kg p.o.): non-significant trend toward a preference for the novel object; preference for the novel object (exploration times) (recognition memory; COMPOUND A 30, 60, and 90 mg/kg p.o.): significant (p<0.05) preference for the novel object; d2 ratios vs vehicle-control (recognition memory; COMPOUND A 60 and 90 mg/kg p.o.): significant difference (p<0.05) from the vehicle-control response; stability in rat red blood cells, plasma and whole blood [3]: time-dependent decrease in the amount of parent compound present
